Key:
Experiment in all cases: relative viability (nuclei count vs DMSO), 5 days (fraction); higher = more cells survive
[1] = compound: CC1=C(C(=NN1)C)CC2=C(C3=C(S2)N(C(=O)N(C3=O)C)CC(C)C)C(=O)N4C[C@@H](CO4)O + O=C(CCCCCCC(=O)Nc1ccccc1)NO [Vorinostat] (partner 1 µM)
Summary of the method: (§1)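 Values are medians from duplicate plates. Each reflects relative viability, defined as the nuclei count of treated wells over that of vehicle wells. Lung cancer cell lines in 1536-well plates were pin-tool dosed one day after seeding with one drug alone or with a fixed anchor-drug dose plus five library-drug doses (not always all listed) in √10 steps, then fixed, stained and imaged at 4× after 5 days.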

[2] = compound: Cc1ccccc1C(C(=O)NC1CCCCC1)N(C(=O)Cn1ccnc1C)c1cccc(F)c1 [IDH-C35] + CCNC(=O)c1noc(-c2cc(C(C)C)c(O)cc2O)c1-c1ccc(CN2CCOCC2)cc1 [Luminespib] (partner 0.01 µM)
Summary of the method: as §1

[3] = compound: Cc1ccccc1C(C(=O)NC1CCCCC1)N(C(=O)Cn1ccnc1C)c1cccc(F)c1 [IDH-C35] + Cc1cc(Nc2cc(N3CCN(C)CC3)nc(Sc3ccc(NC(=O)C4CC4)cc3)n2)n[nH]1 [Tozasertib] (partner 0.1 µM)
Summary of the method: as §1

[4] = compound: Cc1ccccc1C(C(=O)NC1CCCCC1)N(C(=O)Cn1ccnc1C)c1cccc(F)c1 [IDH-C35] + O=C(c1cc(Cc2n[nH]c(=O)c3ccccc23)ccc1F)N1CCN(C(=O)C2CC2)CC1 [Olaparib] (partner 8 µM)
Summary of the method: as §1

Row | Cell Line | relative viability ([1]; first compound 0.0025 µM) | relative viability ([1]; first compound 0.007906 µM) | relative viability ([1]; first compound 0.025 µM) | relative viability ([1]; first compound 0.07906 µM) | relative viability ([1]; first compound 0.25 µM) | relative viability ([2]; first compound 0.08 µM) | relative viability ([2]; first compound 0.253 µM) | relative viability ([2]; first compound 0.8 µM) | relative viability ([2]; first compound 2.53 µM) | relative viability ([2]; first compound 8 µM) | relative viability ([3]; first compound 0.08 µM) | relative viability ([3]; first compound 0.253 µM) | relative viability ([3]; first compound 0.8 µM) | relative viability ([3]; first compound 2.53 µM) | relative viability ([3]; first compound 8 µM) | relative viability ([4]; first compound 0.08 µM) | relative viability ([4]; first compound 0.253 µM) | relative viability ([4]; first compound 0.8 µM) | relative viability ([4]; first compound 2.53 µM) | relative viability ([4]; first compound 8 µM)
1 | NCI-H1650 | 0.529 | 0.583 | 0.49 | 0.713 | 0.568 | 0.207 | 0.182 | 0.214 | 0.2 | 0.199 | 0.407 | 0.393 | 0.378 | 0.444 | 0.355 | 0.783 | 0.65 | 0.769 | 0.588 | 0.757
2 | BEN | 0.553 | 0.493 | 0.593 | 0.527 | 0.536 | 0.373 | 0.391 | 0.311 | 0.425 | 0.333 | 0.5 | 0.429 | 0.515 | 0.474 | 0.552 | 1.06 | 1.11 | 1.03 | 0.952 | 0.995
3 | EMC-BAC-2 | 0.487 | 0.513 | 0.386 | 0.565 | 0.538 | 1.18 | 1.18 | 1.18 | 1.14 | 1.14 | 0.304 | 0.298 | 0.314 | 0.28 | 0.283 | 0.496 | 0.509 | 0.472 | 0.507 | 0.482
4 | LU99A | 0.462 | 0.526 | 0.505 | 0.46 | 0.575 | 0.244 | 0.286 | 0.239 | 0.236 | 0.25 | 0.281 | 0.255 | 0.257 | 0.296 | 0.257 | 0.254 | 0.247 | 0.291 | 0.259 | 0.248
5 | ABC-1 | 1.08 | 1.27 | – | 0.904 | 0.864 | 0.598 | – | 0.688 | 0.805 | 0.818 | 0.188 | 0.171 | 0.188 | 0.146 | 0.176 | 0.668 | 1.04 | 0.77 | 0.819 | 0.906
6 | NCI-H2170 | 0.82 | 0.792 | 0.779 | 0.749 | 0.864 | 0.678 | 0.799 | 0.684 | 0.687 | 0.72 | 0.781 | 0.724 | 0.678 | 0.728 | 0.693 | 0.616 | 0.654 | 0.587 | 0.571 | 0.593
7 | NCI-H1299 | – | – | – | – | – | – | – | – | – | – | – | – | – | – | – | 1.04 | 0.977 | 0.979 | 1.04 | 0.998
8 | EBC-1 | – | – | – | – | – | – | – | – | – | – | – | – | – | – | – | 0.702 | 0.689 | 0.724 | 0.778 | 0.703
9 | NCI-H2347 | 0.588 | 0.624 | 0.544 | 0.559 | 0.431 | 0.653 | 0.575 | 0.48 | 0.508 | 0.369 | 0.476 | 0.599 | 0.497 | 0.657 | 0.418 | 0.577 | 0.628 | 0.609 | 0.522 | 0.554
10 | NCI-H1993 | 1.03 | 0.664 | 0.685 | 0.623 | 0.711 | 0.793 | 0.882 | 0.914 | 0.836 | 0.936 | 0.545 | 0.614 | 0.551 | 0.579 | 0.536 | 1.21 | 1.13 | 1.03 | 0.997 | 1.08
11 | NCI-H322M | 0.876 | 0.821 | 0.857 | 0.953 | 0.801 | 0.921 | 0.784 | 0.826 | 0.833 | 0.942 | 0.46 | 0.494 | 0.466 | 0.467 | 0.517 | 0.616 | 0.796 | 0.794 | 0.789 | 0.845
12 | NCI-H838 | 0.696 | 0.75 | 0.691 | 0.777 | 0.704 | 0.319 | 0.3 | 0.266 | 0.331 | 0.24 | 0.249 | 0.276 | 0.292 | 0.281 | 0.234 | 0.797 | 0.787 | 0.779 | 0.785 | 0.745
13 | HARA | 0.511 | 0.657 | 0.653 | 0.516 | 0.509 | 0.783 | 0.761 | 0.637 | – | 0.617 | 0.0971 | 0.135 | 0.104 | – | 0.133 | 0.835 | 1.03 | 0.742 | 0.725 | 0.845
14 | NCI-H2087 | 0.841 | 0.581 | 0.578 | 0.462 | 0.875 | 0.105 | 0.141 | 0.164 | – | 0.128 | 0.196 | 0.23 | 0.279 | – | 0.264 | 0.561 | 0.533 | 0.627 | 0.58 | 0.558
15 | NCI-H1792 | – | – | – | – | – | 0.477 | 0.473 | 0.499 | 0.413 | 0.493 | – | – | – | – | – | 0.508 | 0.444 | 0.417 | 0.474 | 0.362
16 | A549 | – | – | – | – | – | – | – | – | – | – | – | – | – | – | – | 0.447 | 0.346 | 0.268 | 0.168 | 0.112
17 | NCI-H1563 | – | – | – | – | – | 0.538 | 0.563 | 0.558 | 0.508 | 0.536 | – | – | – | – | – | – | – | – | – | –
18 | HCC-78 | 0.521 | 0.552 | 0.497 | 0.518 | 0.439 | – | – | – | – | – | 0.403 | 0.363 | 0.388 | 0.383 | 0.254 | 0.91 | 0.78 | 0.883 | 0.932 | 0.741
19 | IA-LM | 0.91 | 1.19 | – | 0.942 | 1.08 | – | – | – | – | – | – | – | – | – | – | 0.872 | 0.88 | 0.731 | 0.744 | 0.963
20 | NCI-H1703 | – | – | – | – | – | – | – | – | – | – | – | – | – | – | – | 0.293 | 0.47 | 0.441 | 0.383 | 0.434
21 | NCI-H1648 | 0.787 | 0.413 | 0.42 | 0.406 | 0.441 | – | – | – | – | – | 0.567 | 0.499 | 0.511 | 0.525 | 0.541 | – | 0.765 | 0.801 | 0.681 | 0.782
